Experimental data: patent US20210196654A1, “METHOD OF TREATING CONDITIONS” (Clexio Biosciences Ltd., priority 2019, published 2021)

Legend:
[1] = Repeated dose 28 day toxicokinetics; settings: for AUC(0-inf) / AUC(0-t) / Cmax / half-life / Tmax: Sprague Dawley, rat, in vivo, po; for AUC(0-t): AUC0-t
Experimental: The objective of the study was to assess the potential toxicity, neurobehavioral effects, and toxicokinetics (TK) of esketamine when administered orally, via gavage, to Sprague Dawley rats for 28 days and to evaluate recovery during a 14-day drug-free period. Fifty male and 50 female rats were randomized into 4 groups (15/sex/Groups 1 and 4; 10/sex/Groups 2 and 3). Esketamine was administered via oral gavage once daily for 28 consecutive days to males at 0 (vehicle control), 6, 10 or 30 mg/kg/day and females at 0 (vehicle control), 2, 10 or 20 mg/kg/day in a dose volume of 10 mL/kg. Animals were observed until euthanized and necropsied on Day 29 (10/sex/group) or 43 (5/sex from Groups 1 and 4). Toxicity was evaluated based on mortality, clinical observations, body weights, food consumption, ophthalmology, motor activity, functional observational battery, clinical pathology (clinical chemistry, hematology, coagulation and urinalysis), organ weights, anatomic (macroscopic or microscopic) pathology. Toxicokinetic animals (3/sex/Group 1; 6/sex/Groups 2, 3, and 4) were similarly dosed and bled on Day 1 and during Week 4 for toxicokinetic analysis.

[2] = system: healthy male and female subjects; experiment: Single dose crossover study in healthy volunteers, adverse events; type: in vivo, human
Description: A total of 128 TEAEs (treatment-emergent adverse event) were reported by 15 of 16 (94%) subjects of which 79 TEAEs reported by 14 of 16 (88%) subjects were to be related to the study drug. Overall, a total of 14 of 128 TEAEs reported by 4 (25%) subjects were of moderate severity and 114 of 128 TEAEs reported by 15 (94%) subjects were of mild severity. […] The most frequently occurring adverse events (reported more than twice) were headache, dizziness, hypokinesia, feeling abnormal, fatigue, euphoric mood inappropriate affect, nausea and hyperhidrosis. Table 4 presents the frequency of the most frequently reported related TEAEs as a percentage of the subjects that experienced an adverse effect per treatment.

[3] = female, 2 mg/kg, Day 1, female rats, 2 mg/kg oral
[4] = female, 2 mg/kg, Day 28, female rats, 2 mg/kg oral
[5] = female, 10 mg/kg, Day 1, female rats, 10 mg/kg oral
[6] = female, 10 mg/kg, Day 28, female rats, 10 mg/kg oral
[7] = female, 20 mg/kg, Day 1, female rats, 20 mg/kg oral
[8] = female, 20 mg/kg, Day 28, female rats, 20 mg/kg oral
[9] = male, 6 mg/kg, Day 1, male rats, 6 mg/kg oral
[10] = male, 6 mg/kg, Day 28, male rats, 6 mg/kg oral
[11] = male, 10 mg/kg, Day 1, male rats, 10 mg/kg oral
[12] = male, 10 mg/kg, Day 28, male rats, 10 mg/kg oral
[13] = male, 30 mg/kg, Day 1, male rats, 30 mg/kg oral
[14] = male, 30 mg/kg, Day 28, male rats, 30 mg/kg oral

In the case of CN[C@]1(c2ccccc2Cl)CCCCC1=O [esketamine, (2S)-2-(2-Chlorophenyl)-2-(methylamino) cyclohexanone], the “Dose normalized AUC0-inf” value ([1]; Day 1, female rats, 2 mg/kg oral) is reported as 29.0 (ng*h/ml)/(mg/kg), the “Dose normalized AUC0-inf” value ([1]; Day 1, female rats, 10 mg/kg oral) is reported as 44.0 (ng*h/ml)/(mg/kg) and the “Dose normalized AUC0-inf” value ([1]; Day 1, female rats, 20 mg/kg oral) is reported as 49.8 (ng*h/ml)/(mg/kg). The “Dose normalized AUC0-inf” value ([1]; Day 1, male rats, 6 mg/kg oral) was 17.2 (ng*h/ml)/(mg/kg), the “Dose normalized AUC0-inf” value ([1]; Day 1, male rats, 10 mg/kg oral) was 18.1 (ng*h/ml)/(mg/kg) and the “Dose normalized AUC0-inf” value ([1]; Day 1, male rats, 30 mg/kg oral) was 19.5 (ng*h/ml)/(mg/kg). For the same compound, the “Dose normalized AUC0-t” value ([1]; Day 28, female rats, 2 mg/kg oral) was 31.0 (ng*h/ml)/(mg/kg), the “Dose normalized AUC0-t” value ([1]; Day 28, female rats, 10 mg/kg oral) was 51.3 (ng*h/ml)/(mg/kg) and the “Dose normalized AUC0-t” value ([1]; Day 28, female rats, 20 mg/kg oral) was 53.2 (ng*h/ml)/(mg/kg). For the same compound, the “Dose normalized AUC0-t” value ([1]; Day 28, male rats, 6 mg/kg oral) was 10.2 (ng*h/ml)/(mg/kg), the “Dose normalized AUC0-t” value ([1]; Day 28, male rats, 10 mg/kg oral) was 17.9 (ng*h/ml)/(mg/kg) and the “Dose normalized AUC0-t” value ([1]; Day 28, male rats, 30 mg/kg oral) was 19.2 (ng*h/ml)/(mg/kg). The “sex difference in exposure” value ([1]; after normalization for dose level differences) was “males had lower exposures than females”, the AUC(0-inf) ([1]; female, 2 mg/kg) was 58 ng·h/mL and the AUC(0-t) [1, 3] was 57 ng·h/mL. For the same compound, the AUC(0-t) [1, 4] was 62 ng·h/mL, the Cmax [1, 3] was 67.2 ng/mL and the Cmax [1, 4] was 133 ng/mL. The half-life ([1]; female, 2 mg/kg, t1/2, Day 1, female rats, 2 mg/kg oral) was 30 min, the Tmax [1, 3] was 10.2 min and the Tmax [1, 4] was 10.2 min. It also gave an AUC(0-inf) ([1]; female, 10 mg/kg) of 440 ng·h/mL, an AUC(0-t) [1, 5] of 418 ng·h/mL and an AUC(0-t) [1, 6] of 514 ng·h/mL. The Cmax [1, 5] was 295 ng/mL, the Cmax [1, 6] was 768 ng/mL and the half-life ([1]; female, 10 mg/kg, t1/2, Day 1, female rats, 10 mg/kg oral) was 42 min. For the same compound, the half-life ([1]; female, 10 mg/kg, t1/2, Day 28, female rats, 10 mg/kg oral) was 24 min, the Tmax [1, 5] was 10.2 min and the Tmax [1, 6] was 10.2 min. It also gave an AUC(0-inf) ([1]; female, 20 mg/kg) of 995 ng·h/mL, an AUC(0-t) [1, 7] of 993 ng·h/mL and an AUC(0-t) [1, 8] of 1060 ng·h/mL. It also gave a Cmax [1, 7] of 672 ng/mL, a Cmax [1, 8] of 1450 ng/mL and a half-life ([1]; female, 20 mg/kg, t1/2, Day 1, female rats, 20 mg/kg oral) of 54 min. For the same compound, the half-life ([1]; female, 20 mg/kg, t1/2, Day 28, female rats, 20 mg/kg oral) was 36 min, the Tmax [1, 7] was 10.2 min and the Tmax [1, 8] was 10.2 min. For the same compound, the “Cmax Day 28 vs Day 1” value ([1]; females) was “higher on Day 28”, the “exposure increase with dose” value ([1]; females, 2 to 20 mg/kg/day) was “slightly greater than dose-proportional” and the AUC(0-inf) ([1]; male, 6 mg/kg) was 103 ng·h/mL. For the same compound, the AUC(0-t) [1, 9] was 99 ng·h/mL, the AUC(0-t) [1, 10] was 61 ng·h/mL and the Cmax [1, 9] was 109 ng/mL. It also gave a Cmax [1, 10] of 113 ng/mL, a half-life ([1]; male, 6 mg/kg, t1/2, Day 1, male rats, 6 mg/kg oral) of 48 min and a half-life ([1]; male, 6 mg/kg, t1/2, Day 28, male rats, 6 mg/kg oral) of 36 min. It also gave a Tmax [1, 9] of 10.2 min, a Tmax [1, 10] of 10.2 min and an AUC(0-inf) ([1]; male, 10 mg/kg) of 181 ng·h/mL. It also gave an AUC(0-t) [1, 11] of 175 ng·h/mL, an AUC(0-t) [1, 12] of 179 ng·h/mL and a Cmax [1, 11] of 179 ng/mL. It also gave a Cmax [1, 12] of 211 ng/mL, a half-life ([1]; male, 10 mg/kg, t1/2, Day 1, male rats, 10 mg/kg oral) of 42 min and a half-life ([1]; male, 10 mg/kg, t1/2, Day 28, male rats, 10 mg/kg oral) of 36 min. For the same compound, the Tmax [1, 11] was 10.2 min, the Tmax [1, 12] was 10.2 min and the AUC(0-inf) ([1]; male, 30 mg/kg) was 585 ng·h/mL. It also gave an AUC(0-t) [1, 13] of 580 ng·h/mL, an AUC(0-t) [1, 14] of 575 ng·h/mL and a Cmax [1, 13] of 296 ng/mL. For the same compound, the Cmax [1, 14] was 398 ng/mL, the half-life ([1]; male, 30 mg/kg, t1/2, Day 1, male rats, 30 mg/kg oral) was 72 min and the half-life ([1]; male, 30 mg/kg, t1/2, Day 28, male rats, 30 mg/kg oral) was 90 min. The Tmax [1, 13] was 10.2 min, the Tmax [1, 14] was 30 min and the “exposure increase with dose” value ([1]; males, 6 to 30 mg/kg/day) was “generally dose-proportional”. For the same compound, the “Dizziness, related TEAE, percentage of subjects” value ([2]; 0.3 mg/kg iv) was 6%, the “Euphoric mood, related TEAE, percentage of subjects” value ([2]; 0.3 mg/kg iv) was 19% and the “Fatigue, related TEAE, percentage of subjects” value ([2]; 0.3 mg/kg iv) was 6%. The “Feeling abnormal, related TEAE, percentage of subjects” value ([2]; 0.3 mg/kg iv) was 13%, the “Headache, related TEAE, percentage of subjects” value ([2]; 0.3 mg/kg iv) was 19% and the “Hypokinesia, related TEAE, percentage of subjects” value ([2]; 0.3 mg/kg iv) was 6%. The “Inappropriate affect, related TEAE, percentage of subjects” value ([2]; 0.3 mg/kg iv) was 6%, the “Nausea, related TEAE, percentage of subjects” value ([2]; 0.3 mg/kg iv) was 6% and the “Feeling abnormal, related TEAE, percentage of subjects” value ([2]; 20 mg oral solution) was 19%. For the same compound, the “Headache, related TEAE, percentage of subjects” value ([2]; 20 mg oral solution) was 19%, the “Inappropriate affect, related TEAE, percentage of subjects” value ([2]; 20 mg oral solution) was 6% and the “Dizziness, related TEAE, percentage of subjects” value ([2]; 20 mg oral tablet) was 13%. For the same compound, the “Fatigue, related TEAE, percentage of subjects” value ([2]; 20 mg oral tablet) was 7%, the “Feeling abnormal, related TEAE, percentage of subjects” value ([2]; 20 mg oral tablet) was 7% and the “Hyperhidrosis, related TEAE, percentage of subjects” value ([2]; 20 mg oral tablet) was 7%. For the same compound, the “Dizziness, related TEAE, percentage of subjects” value ([2]; 100 mg oral tablet) was 13%, the “Euphoric mood, related TEAE, percentage of subjects” value ([2]; 100 mg oral tablet) was 13% and the “Feeling abnormal, related TEAE, percentage of subjects” value ([2]; 100 mg oral tablet) was 20%. For the same compound, the “Headache, related TEAE, percentage of subjects” value ([2]; 100 mg oral tablet) was 13%, the “Hyperhidrosis, related TEAE, percentage of subjects” value ([2]; 100 mg oral tablet) was 7% and the “Hypokinesia, related TEAE, percentage of subjects” value ([2]; 100 mg oral tablet) was 13%. The “Inappropriate affect, related TEAE, percentage of subjects” value ([2]; 100 mg oral tablet) was 7%, the “Nausea, related TEAE, percentage of subjects” value ([2]; 100 mg oral tablet) was 20% and the “subjects reporting TEAEs of moderate severity” value ([2]; 4 subjects) was 25%. The “subjects reporting TEAEs related to the study drug” value ([2]; 14 of 16 subjects) was 88%, the “subjects reporting TEAEs” value ([2]; 15 of 16 subjects) was 94% and the “subjects reporting TEAEs of mild severity” value ([2]; 15 subjects) was 94%. The tolerability ([2]; 15 subjects who completed the study) was “generally well tolerated”, the “TEAEs related to the study drug” value ([2]; all treatments) was 79 and the “severe TEAEs or SAEs” value ([2]; all treatments) was “No severe TEAEs or SAEs were reported”. For the same compound, the “total TEAEs reported” value ([2]; all treatments, 16 subjects) was 128, the “TEAEs of mild severity” value ([2]; of 128 TEAEs) was 114 and the “TEAEs of moderate severity” value ([2]; of 128 TEAEs) was 14.
